Calls of active or inactive are those of the source. The rule behind the calls is not given here.
What was measured:
[1] = target: T1, Tyrosyl-DNA phosphodiesterase 1 (Homo sapiens, UniProt Q9NUW8); assay: Inhibition of Tdp1 (unknown origin) up to 40 uM incubated for 30 mins using 5'-/6-TAMN/AGGATCTAAAAGACTT/3BHQ_2/-3' substrate by microplate reader based assay
[2] = target: T1, Tyrosyl-DNA phosphodiesterase 1; assay: Inhibition of Tdp1 (unknown origin) incubated for 30 mins using 5'-/6-TAMN/AGGATCTAAAAGACTT/3BHQ_2/-3' substrate by microplate reader based assay

T1 sequence (Q9NUW8 whole entry): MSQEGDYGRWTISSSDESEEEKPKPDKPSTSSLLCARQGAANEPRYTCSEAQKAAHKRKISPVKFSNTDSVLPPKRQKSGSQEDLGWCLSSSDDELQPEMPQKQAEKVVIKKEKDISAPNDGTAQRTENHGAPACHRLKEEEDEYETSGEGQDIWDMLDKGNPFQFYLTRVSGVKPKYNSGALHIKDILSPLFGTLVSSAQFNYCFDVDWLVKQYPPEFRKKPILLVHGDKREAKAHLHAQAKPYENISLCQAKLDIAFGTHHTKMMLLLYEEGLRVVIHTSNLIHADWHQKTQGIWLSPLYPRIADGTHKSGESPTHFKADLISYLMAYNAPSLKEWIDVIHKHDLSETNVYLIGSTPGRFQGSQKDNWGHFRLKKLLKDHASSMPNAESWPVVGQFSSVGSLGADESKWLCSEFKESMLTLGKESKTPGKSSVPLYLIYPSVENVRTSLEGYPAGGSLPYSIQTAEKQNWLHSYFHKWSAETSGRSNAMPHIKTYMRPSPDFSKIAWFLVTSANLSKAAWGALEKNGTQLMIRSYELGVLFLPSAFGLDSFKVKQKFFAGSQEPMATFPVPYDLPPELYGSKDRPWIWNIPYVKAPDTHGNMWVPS

Row | SMILES | inhibition [1] | IC50 [2] [nM]
1 | COc1cc([C@@H]2O[C@H]3[C@H](O[C@H]2COC(=O)c2cc(O)c(O)c(O)c2)O[C@H](CO)[C@@H](O)[C@@H]3O)ccc1O | inactive | 
2 | COc1cc(C[C@@H](CO)O[C@@H]2O[C@H](COC(=O)c3cc(O)c(O)c(O)c3)[C@@H](O)[C@H](O)[C@H]2O)ccc1O |  | 1000
3 | COc1cc(O[C@@H]2O[C@H](COC(=O)c3cc(O)c(O)c(O)c3)[C@@H](O)[C@H](O)[C@H]2O)cc(OC)c1OC | inactive | 
4 | COc1ccc(O[C@@H]2O[C@H](COC(=O)c3cc(O)c(O)c(O)c3)[C@@H](O)[C@H](O)[C@H]2O)cc1OC |  | 1000
5 | COc1cc([C@@H]2O[C@H]3[C@H](O[C@H]2CO)O[C@H](COC(=O)c2cc(O)c(O)c(O)c2)[C@@H](O)[C@@H]3O)ccc1O | inactive | 
